Data taken from ChEMBL document CHEMBL1151082, “Structure-directed discovery of an inhibitor of the binding of HIV GP120 to the CD4 receptor” (Bioorg Med Chem Lett, 1993).

Assays:
[1] = biological target: T1, Envelope glycoprotein gp160 (Human immunodeficiency virus type 1 group M subtype B (isolate HXB2)(HIV-1), UniProt P04578); test: Tested for inhibition of binding of soluble recombinant CD4-gp120 using ELISA assay; IA is Inactive
[2] = biological target: T1, Envelope glycoprotein gp160; test: Tested for inhibition of binding of soluble recombinant CD4-gp120 using ELISA assay
[3] = biological target: T1, Envelope glycoprotein gp160; test: Tested for rate constant of binding to inhibit soluble recombinant CD4-gp120; value ranges form 4-20 uM
[4] = biological target: T1, Envelope glycoprotein gp160; test: Tested for ability to block the CD4-gp120 interaction measured by binding of [125I]sCD4 to gp120
[5] = biological target: T1, Envelope glycoprotein gp160; test: Tested in an HIV viral syncytium assay for inhibition of binding of recombinant CD4-gp120

CCCCN(CCCC)CC1CC(c2ccccc2)(c2ccccc2)C(=O)O1 (stereo unspecified)
IC50 [1]: Not Active

COC(=O)C(=O)N1CCC[C@@H]1C(=O)N[C@H](Cc1ccccc1)C(=O)OCc1ccccc1
IC50 [2]: 300 µM

CC(C)C[C@H](NC(=O)[C@H](Cc1ccccc1)N1NC(=O)[C@H]([C@@H](N)CO)CCC(=O)N[C@@H](CO)C1=O)C(=O)N[C@H](C(=O)NCc1ccccc1)[C@@H](C)O
IC50 [2]: > 100 µM
Kd [3]: 4 µM

CCN(Cc1ccccc1)CC1CC(c2ccccc2)(c2ccccc2)C(=O)O1 (stereo unspecified)
IC50 [1]: Not Active

CCNCC1CC(c2ccccc2)(c2ccccc2)C(=O)O1 (stereo unspecified)
IC50 [1]: Not Active

CCN(CCN(C)C)CC1CC(c2ccccc2)(c2ccccc2)C(=O)O1 (stereo unspecified)
IC50 [1]: Not Active

CN(C)CCNCC1CC(c2ccccc2)(c2ccccc2)C(=O)O1 (stereo unspecified)
IC50 [1]: Not Active

O=C1OC(CBr)CC1(c1ccccc1)c1ccccc1 (stereo unspecified)
IC50 [1]: Not Active

CC1(C)CN(CC2CC(c3ccccc3)(c3ccccc3)C(=O)O2)C=N1 (stereo unspecified)
IC50 [1]: Not Active

CCN(CC1CC(c2ccccc2)(c2ccccc2)C(=O)O1)C(=O)C(=O)OC (stereo unspecified)
IC50 [1]: Not Active

O=C1OC(C[N+]23CCC(CC2)CC3)CC1(c1ccccc1)c1ccccc1.[Br-] (stereo unspecified)
IC50 [1]: Not Active

CC1=NCCN1CC1CC(c2ccccc2)(c2ccccc2)C(=O)O1 (stereo unspecified)
IC50 [1]: Not Active

CCN(CCCl)CC1CC(c2ccccc2)(c2ccccc2)C(=O)O1 (stereo unspecified)
IC50 [4]: 30 µM
IC50 [2]: 35 µM
IC50 [5]: 100 µM
